Results on 10 substances are retold here after article PMC8709211, “Improving Membrane Activity and Cargo Delivery Efficacy of a Cell-Penetrating Peptide by Loading with Carboranes” (Pharmaceutics, 2021).

Data set [1] can be described thus: Critical micelle concentration (CMC) determination by UV-VIS. In kind it is physicochemical. The note with it: peptide in water, 1–200 µM; UV absorbance at 255 nm plotted against logarithm of peptide concentration, intersection point of two lines. How it is done:
Peptide conjugates were dissolved in water and different concentrations (1–200 µM) were prepared. UV-VIS spectra ranging from 200–700 nm were recorded using a 1 cm path length quartz cuvette in a Spectroquant Pharo 300 photometer (Merck, Darmstadt, Germany). The absorbance at 255 nm was plotted against the logarithm of the peptide concentration. The intersection point of two lines was determined as CMC.
Since this effect was obviously dependent on the hydrophobic nature of the conjugates, we were then interested in whether they would also self-assemble and form nanostructures, such as micelles or fibrils. An easy to apply and fast method makes use of changes in spectroscopic properties associated with micelle formation. For this, one measures the UV absorbance at a specific wavelength as a function of the concentration. Because aggregates like micelles and free molecule species contribute to a different extent to the absorbed UV light, an abrupt change of the slope occurs above a certain point. The corresponding concentration is defined as the critical micelle concentration (CMC). We measured the UV-VIS spectra of all CB-sC18 conjugates and observed for all an additional concentration-dependent maximum at 255 nm (Figure 1A,B and Table 2), whereas this maximum was not detected for meta-carborane-1-carboxylic acid (Figure S14) or sC18 alone (Figure S15).
Thus, we hypothesized this maximum as evidence for a possible self-assembly, and by plotting the absorbance at 255 nm against the logarithm of the peptide concentration, we assigned the intersection point as CMC.

In data set [2] the test system is HeLa cells. Nature of the data set: Cellular uptake by flow cytometry. The note with it: 1 µM CF-labeled peptide, serum-free medium, 30 min, 37 °C, triplicate, n = 3. The data set is classed as cell-based. How it is done: HeLa cells were seeded onto 24-well plates (Sarstedt, Nümbrecht, Germany, 100,000 cells per well, respectively). After reaching 80–90% confluency, medium was removed, and cells were incubated with 1 µM CF-labeled peptide solution in serum-free medium for either 30 min or 2 h at 37 °C. The peptide solution was removed, cells were washed twice with PBS, and trypsinized for 5 min. Detached cells were resuspended in full medium (phenol red free) and afterwards analyzed using a guava easycyte HT flow cytometer (Merck, Darmstadt, Germany).

Data set [3] in a line: CF-leakage assay, zwitterionic LUVs. The settings on record: 1 µM peptide, 25 °C, 90 min; fluorescence, normalized to Triton x-100; duplicate, n = 2. The method, then: (§1) Large unilamellar vesicles (LUVs) were prepared by dissolving different lipids in CHCl3, to reach the desired compositions (lipids were purchased from Avanti Polar Lipids, Inc., Alabaster, AL, USA). To remove the solvent, the mixture was placed into a round-bottomed flask on ice and the solvent was evaporated under reduced pressure for 20 min at 40 °C and afterwards under vacuum for another 5 min. The dried lipid film was then hydrated with HKS buffer (25 mM HEPES, 150 mM KCl, pH 7.4, 10% sucrose (w/v)), supplemented with 100 mM 5(6)-carboxyfluorescein (CF), and homogenized for 5 min at 45 °C to form liposomes (final concentration: 8 mM). The resulting multilamellar vesicle dispersion underwent 10 freeze/thawing cycles and was passed 21 times through a mini extruder (0.4 µm polycarbonate treck-etch membrane; Avanti Polar Lipids, Inc., Alabaster, AL, USA). External CF was removed by size exclusion chromatography (PD10 column, GE Healthcare, Chicago, IL, USA). Peptides were added to the LUVs and the CF release was monitored by measuring the increased fluorescence intensity on a plate reader (Biotek, Winooski, VT, USA). […]
(§2) Our results thus far inspired us to investigate how the novel CB-conjugates would perform in a lipid environment. […] Both lipid systems were additionally loaded with CF in order to monitor membrane leakage via fluorescence dye outflow.

Data set [4] is described as follows: CF-leakage assay, negatively charged LUVs. The note with it: 1 µM peptide, 25 °C, 90 min; fluorescence, normalized to Triton x-100; duplicate, n = 2. How it is done: as §1, §2
A short description of data set [5]: Circular dichroism spectroscopy (alpha-helical content, R-value). The settings on record: for % of alpha helix, 50% TFE / % of alpha helix, Phosphate Buffer: CD, calculated per ref 31; for % of alpha helix, 50% TFE: 20 µM peptide in 10 mM phosphate buffer (pH 7.0) with 50% TFE (v/v); for % of alpha helix, Phosphate Buffer / R-value, Phosphate Buffer: 20 µM peptide in 10 mM phosphate buffer (pH 7.0); for R-value, Phosphate Buffer / R-value, 50% TFE: ratio between the molar ellipticity values at 222 and 208 nm; for R-value, 50% TFE: 20 µM peptide in 10 mM phosphate buffer (pH 7.0) with 50% TFE. The data set is classed as physicochemical. The method, then:
Conjugates were dissolved in 10 mM phosphate buffer (pH 7.0), either alone or supplemented with 50% TFE (v/v), to a final concentration of 20 µM. CD spectra of all conjugates were recorded from 180–260 nm (0.5 nm intervals) on a J-715 spectropolarimeter (JASCO, Pfungstadt, Germany) in an N2 atmosphere.
To find out more, we performed CD spectroscopy for all peptides solved either in phosphate buffer or in phosphate buffer supplemented with trifluoroethanol (TFE), respectively. All conjugates and sC18 adopted an alpha-helix, when present in phosphate buffer with TFE (Figure S20). On the other hand, when CB-conjugates were solved in phosphate buffer only (Figure 1C), some of them directly formed distinct secondary structures. […] Taking this observation into account, we concluded that the number of CB moieties actually promoted the formation of alpha-helical structures. This effect might be further explained by the helical wheel projection of each conjugate showing that the hydrophobic face of the peptide was clearly enlarged when three or more CB units were attached (see Figure S21). […]

The next data set relates to human red blood cells. Description: Hemolysis assay. The data set is classed as cell-based. The settings on record: human RBCs 5% (v/v in PBS), 37 °C, up to 25 µM peptide, absorption at 560 nm, normalized to Triton-x-100 control, triplicate, n = 2. The method, then:
Human red blood cells were washed five times with PBS (4 °C, 3000× g, 5 min) and diluted to 5% (v/v in PBS). In total, 100 µL of this solution were transferred into a fresh 96-well plate. In total, 50 µL of peptide solution were added and gently resuspended. Red blood cells were incubated for either 1 or 24 h at 37 °C and 5% CO2, respectively. In total, 50 µL of 10% Triton-x-100 were added 10 min prior to the end of the incubation time and served as a positive control. After incubation, cells were centrifuged (r.t., 2500× g, 3 min). The supernatant was carefully transferred into a fresh 96-well plate and the absorption at 560 nm was measured on a Tecan infinite M200 plate reader (Tecan Group AG, Männedorf, Switzerland). The measured absorption referred to the hemoglobin concentration.
Next, we incubated human red blood cells (RBCs) with different concentrations of CB-sC18 conjugates at 37 °C for 1 or 24 h, respectively. Since their cell membranes are mainly composed of neutral lipids, RBCs serve as an excellent biological model for the lytic activity of a peptide. […] For sC18, this agreed with the detected low activity when in contact with zwitterionic LUVs. […] The same activity profile was observed when incubating peptide conjugates with RBCs for only one hour (Figure S30), whereas the effects started at concentrations higher than 5 µM. […]

Data set [6] relates to HeLa cells. Nature of the data set: Cell viability assay (resazurin). The data set is classed as cell-based. The settings on record: 37 °C, serum-free medium, 125 nM–100 µM, relative to untreated cells. The method, then:
In total, 17.000 HeLa cells per well were seeded onto 96-well plates (Sarstedt, Nümbrecht, Germany). After confluency of 80–90% was reached, the growth medium was removed, and cells were incubated with 100 µL of peptide solution of different concentrations (125 nM–100 μM in serum-free medium) for 24 h at 37 °C. For a positive control, cells were treated with 70% EtOH for 10 min. Cells were washed with serum-free medium and incubated with 10% (v/v) resazurin (Sigma-Aldrich, Merck group: Darmstadt, Germany) in serum-free medium for 1.5 h at 37 °C. Cell viability was determined by measurement of the resorufin product at 595 nm (λex = 550 nm) on a Tecan infinite M200 plate reader (Tecan Group AG, Männedorf, Switzerland). Viability was calculated from the fluorescence values of treated cells in relation to untreated cells.
For orientation: The colour change of resazurin is a common sign of viable cells or microbes.

For the substance “CB-KKKK-GLRKRLRKFRNKIKEK [CB5-sC18, sC18 conjugate bearing five meta-carborane clusters]”, in data set [1], the CMC came out at 44.37 ± 1.16 µM. In addition, the “Cellular uptake into HeLa cells, 30 min” value in the data set with HeLa cells [2] is “decreased again”. Also, the “CF release (leakage) from zwitterionic LUVs” value in data set [3] is reported as “same leakage profile as CB1-sC18”. Also, the “CF release (leakage) from negatively charged LUVs” value in data set [4] is listed as “increased outflow of CF”. Also, in data set [5], the “% of alpha helix, 50% TFE” value is given as 50.15%; the “% of alpha helix, Phosphate Buffer” value is on record as 21.09%; the “R-value, Phosphate Buffer” value amounted to 0.87; the “R-value, 50% TFE” value is listed as 0.92.

As for “CB‐KKKK‐LLIILRRRIRKQAHAHSK [CB5-pVEC, pVEC conjugate bearing five meta-carborane clusters]”, in data set [5], the “% of alpha helix, 50% TFE” value is 45.48%; the “% of alpha helix, Phosphate Buffer” value is given as 22.96%; the “R-value, Phosphate Buffer” value is 0.79; the “R-value, 50% TFE” value was 0.79.

Take “KK-GLRKRLRKFRNKIKEK [CB2-sC18, sC18 conjugate bearing two meta-carborane clusters]”: the “Hemolytic activity towards RBCs, 24 h” value with human red blood cells is listed as “able to lyse RBCs”. In data set [5], the “% of alpha helix, 50% TFE” value was 60.49%; the “% of alpha helix, Phosphate Buffer” value is 5.45%; the “R-value, 50% TFE” value was determined as 0.89.

For the substance “KKK-GLRKRLRKFRNKIKEK [CB3-sC18, sC18 conjugate bearing three meta-carborane clusters]”, the CMC in data set [1] is listed as 44.46 ± 1.14 µM. In data set [5], the “% of alpha helix, 50% TFE” value is given as 56.10%; the “% of alpha helix, Phosphate Buffer” value is 16.68%; the “R-value, Phosphate Buffer” value was determined as 0.56; the “R-value, 50% TFE” value stood at 0.88.

For “KKKK‐LLIILRRRIRKQAHAHSK [CB4-pVEC, pVEC conjugate bearing four meta-carborane clusters]”, in data set [5], the “% of alpha helix, 50% TFE” value was 59.84%; the “% of alpha helix, Phosphate Buffer” value is on record as 22.59%; the “R-value, Phosphate Buffer” value is 0.92; the “R-value, 50% TFE” value is reported as 0.84.

Turning to “KKK‐LLIILRRRIRKQAHAHSK [CB3-pVEC, pVEC conjugate bearing three meta-carborane clusters]”, in data set [5], the “% of alpha helix, 50% TFE” value was 65.76%; the “% of alpha helix, Phosphate Buffer” value was 16.98%; the “R-value, Phosphate Buffer” value came to 0.99; the “R-value, 50% TFE” value is listed as 0.82.

On to “KK‐LLIILRRRIRKQAHAHSK [CB2-pVEC, pVEC conjugate bearing two meta-carborane clusters]”, for which, in data set [5], the “% of alpha helix, 50% TFE” value is reported as 51.36%; the “% of alpha helix, Phosphate Buffer” value is given as 20.41%; the “R-value, Phosphate Buffer” value stood at 0.84; the “R-value, 50% TFE” value was 0.82.

Regarding “K‐LLIILRRRIRKQAHAHSK [CB1-pVEC, pVEC conjugate bearing one meta-carborane cluster]”, in data set [5], the “% of alpha helix, 50% TFE” value is 44.28%; the “% of alpha helix, Phosphate Buffer” value is 17.72%; the “R-value, Phosphate Buffer” value was determined as 0.57; the “R-value, 50% TFE” value is recorded as 0.82.

In the case of “LLIILRRRIRKQAHAHSK [pVEC, VE-cadherin-derived cell-penetrating peptide, reference compound]”, in data set [5], the “% of alpha helix, 50% TFE” value is reported as 48.60%; the “% of alpha helix, Phosphate Buffer” value was 12.18%; the “R-value, Phosphate Buffer” value is recorded as 0.37; the “R-value, 50% TFE” value worked out at 0.73.

With “meta-carborane-1-carboxylic acid [reference compound]”, in the data set on HeLa cells [6], the “Cytotoxicity towards HeLa cells, 24 h” value is listed as “nearly no cytotoxicity”.
